In ChEMBL document CHEMBL1156326, “Novel N-substituted benzimidazole CXCR4 antagonists as potential anti-HIV agents” (Bioorg Med Chem Lett, 2010):

Key:
[1] = Cytotoxicity against human HOS cells; assay type: cell-based
[2] = tested on: Human immunodeficiency virus 1; test: Antiviral activity against HIV1 3B infected in human HOS cells expressing human CXCR4/CCR5/CD4 and HIV-LTR-luciferase; assay type: functional, organism-based; details: Human immunodeficiency virus 1, 3B
[3] = tested on: Human immunodeficiency virus 1; test: Antiviral activity against HIV1 3B infected in human HOS cells expressing human CXCR4/CCR5/CD4 and HIV-LTR-luciferase assessed as change in concentration at which 50 % efficacy is observed in presence of human serum albumin and alpha acid glycoprotein; assay type: functional
[4] = biological target: C-X-C chemokine receptor type 4 (Homo sapiens, UniProt P61073); test: Inhibition of human CXCR4
[5] = Half life in dog at 1 mg/kg, iv; assay type: ADME, organism-based, Canis lupus familiaris; parameters: dose 1 mg/kg, route intravenous; details: in vivo
[6] = Oral bioavailability in rat at 3 mg/kg; assay type: ADME, organism-based; details: in vivo
[7] = Clearance in rat at 1 mg/kg, iv; assay type: ADME, organism-based; parameters: dose 1 mg/kg, route intravenous; details: in vivo
[8] = Clearance in dog at 1 mg/kg, iv; assay type: ADME, organism-based, Canis lupus familiaris; parameters: dose 1 mg/kg, route intravenous; details: in vivo
[9] = biological target: Voltage-gated inwardly rectifying potassium channel KCNH2 (Homo sapiens, UniProt Q12809); test: Binding affinity to human ERG
[10] = Half life in rat at 1 mg/kg, iv; assay type: ADME, organism-based; parameters: dose 1 mg/kg, route intravenous; details: in vivo
[11] = Oral bioavailability in dog at 3 mg/kg; assay type: ADME, organism-based, Canis lupus familiaris; details: in vivo

Sequence of C-X-C chemokine receptor type 4 (P61073 whole entry): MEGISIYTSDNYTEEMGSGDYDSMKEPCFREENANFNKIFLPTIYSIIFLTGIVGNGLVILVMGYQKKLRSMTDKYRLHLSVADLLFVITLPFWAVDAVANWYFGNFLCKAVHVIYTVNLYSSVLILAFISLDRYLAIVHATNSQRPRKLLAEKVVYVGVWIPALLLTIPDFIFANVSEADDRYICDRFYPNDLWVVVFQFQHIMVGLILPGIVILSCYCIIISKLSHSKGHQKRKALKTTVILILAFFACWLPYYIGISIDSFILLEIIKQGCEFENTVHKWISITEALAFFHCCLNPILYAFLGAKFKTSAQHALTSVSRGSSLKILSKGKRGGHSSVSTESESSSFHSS
Sequence of Voltage-gated inwardly rectifying potassium channel KCNH2 (Q12809 whole entry): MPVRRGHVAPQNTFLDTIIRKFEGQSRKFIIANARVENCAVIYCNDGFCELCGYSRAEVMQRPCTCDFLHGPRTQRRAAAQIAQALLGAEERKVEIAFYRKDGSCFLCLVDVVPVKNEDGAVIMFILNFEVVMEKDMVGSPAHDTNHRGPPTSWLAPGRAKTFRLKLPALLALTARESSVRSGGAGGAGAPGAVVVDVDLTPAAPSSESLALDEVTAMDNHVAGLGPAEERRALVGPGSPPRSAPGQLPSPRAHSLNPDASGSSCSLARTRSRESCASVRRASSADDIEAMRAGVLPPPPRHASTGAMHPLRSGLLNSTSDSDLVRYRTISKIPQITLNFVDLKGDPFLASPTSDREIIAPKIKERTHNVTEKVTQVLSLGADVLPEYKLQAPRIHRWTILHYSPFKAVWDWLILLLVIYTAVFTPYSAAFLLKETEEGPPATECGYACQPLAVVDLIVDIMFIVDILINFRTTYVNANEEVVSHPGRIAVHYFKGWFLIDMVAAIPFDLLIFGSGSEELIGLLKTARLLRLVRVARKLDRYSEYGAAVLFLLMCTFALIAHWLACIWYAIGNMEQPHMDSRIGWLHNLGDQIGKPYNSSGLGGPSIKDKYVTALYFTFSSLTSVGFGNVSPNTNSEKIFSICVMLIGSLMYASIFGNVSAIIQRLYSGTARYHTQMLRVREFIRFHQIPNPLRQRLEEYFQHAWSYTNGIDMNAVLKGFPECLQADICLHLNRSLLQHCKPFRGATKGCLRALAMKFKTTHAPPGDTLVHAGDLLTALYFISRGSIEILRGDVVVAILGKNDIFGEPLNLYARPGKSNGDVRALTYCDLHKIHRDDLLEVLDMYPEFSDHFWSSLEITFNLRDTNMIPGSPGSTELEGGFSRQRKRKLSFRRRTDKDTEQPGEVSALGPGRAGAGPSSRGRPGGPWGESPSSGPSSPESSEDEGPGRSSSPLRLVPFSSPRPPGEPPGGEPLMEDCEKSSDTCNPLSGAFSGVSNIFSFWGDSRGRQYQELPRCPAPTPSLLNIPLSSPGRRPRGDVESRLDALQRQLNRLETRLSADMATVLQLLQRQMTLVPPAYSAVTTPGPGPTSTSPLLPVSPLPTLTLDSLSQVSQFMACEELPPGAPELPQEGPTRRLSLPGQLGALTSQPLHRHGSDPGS

SMILES	CC50 [1]	IC50 [2]	fold change (FC) [3]	further results
CN(Cc1nc2ccccc2n1CC1CNC1)C1CCCc2cccnc21 (stereo not drawn)	15000 nM	84 nM		
CN1CCCC(Cn2c(CN(C)C3CCCc4cccnc43)nc3ccccc32)C1 (stereo not drawn)	3000 nM	19 nM		
CN1CCC(Cn2c(CN(C)C3CCCc4cccnc43)nc3ccccc32)C1 (stereo not drawn)	15000 nM	57 nM		
CC(C)CCN1CCC[C@H](Cn2c(CN(C)[C@H]3CCCc4cccnc43)nc3ccccc32)C1	2300 nM	15 nM	5.1	
CN1CC(Cn2c(CN(C)C3CCCc4cccnc43)nc3ccccc32)C1 (stereo not drawn)	14000 nM	66 nM		
CN(Cc1nc2ccccc2n1C[C@H]1CCCN(Cc2cccnc2)C1)[C@H]1CCCc2cccnc21	2500 nM	33 nM	8.7	
CN(Cc1nc2ccccc2n1CC1CCCNC1)C1CCCc2cccnc21 (stereo not drawn)	15000 nM	51 nM		
CN(Cc1nc2ccccc2n1CC1CCNC1)C1CCCc2cccnc21 (stereo not drawn)	7700 nM	24 nM		
CN(Cc1nc2ccccc2n1CCC1CCCCN1)C1CCCc2cccnc21 (stereo not drawn)	8300 nM	64 nM		
CN1CCCCC1CCn1c(CN(C)C2CCCc3cccnc32)nc2ccccc21 (stereo not drawn)	4900 nM	33 nM		
CN(Cc1nc2ccccc2n1C1CCNCC1)C1CCCc2cccnc21 (stereo not drawn)	13000 nM	99 nM		
CN1CCC(n2c(CN(C)C3CCCc4cccnc43)nc3ccccc32)CC1 (stereo not drawn)	16000 nM	95 nM		IC50 [4]: 76 nM
CN1CCC[C@H](Cn2c(CN(C)[C@H]3CCCc4cccnc43)nc3ccccc32)C1	3600 nM	6 nM	10	
CN1CCC[C@@H](Cn2c(CN(C)[C@H]3CCCc4cccnc43)nc3ccccc32)C1	3500 nM	21 nM		
CN1CCC[C@H](Cn2c(CN(C)[C@@H]3CCCc4cccnc43)nc3ccccc32)C1	3600 nM	210 nM		
CC(C)CN1CCC[C@H](Cn2c(CN(C)[C@H]3CCCc4cccnc43)nc3ccccc32)C1	> 2000 nM	8.1 nM	6.2	
CN1CCC[C@@H](Cn2c(CN(C)[C@@H]3CCCc4cccnc43)nc3ccccc32)C1	2800 nM	500 nM		
CN(Cc1nc2ccccc2n1C[C@H]1CCCNC1)[C@H]1CCCc2cccnc21	3500 nM	8 nM	1.2	
CC(C)N1CCC[C@H](Cn2c(CN(C)[C@H]3CCCc4cccnc43)nc3ccccc32)C1	2100 nM	2 nM	2	half-life [5]: 11 h; bioavailability [6]: 11%; IC50 [4]: 4.5 nM; clearance [7]: 8.5 mL/min/kg; clearance [8]: 9.4 mL/min/kg; Activity [9]: Active; half-life [10]: 5.8 h; bioavailability [11]: 22%
CN(Cc1nc2ccccc2n1C[C@H]1CCCN(CCO)C1)[C@H]1CCCc2cccnc21	2500 nM	12 nM	9.1	
CN(Cc1nc2ccccc2n1CCCN)C1CCCc2cccnc21 (stereo not drawn)	9600 nM			IC50 [4]: 47 nM
